{"source": "patent US6764858B2", "about": "“Methods for creating a compound library” (Pharmacia & Upjohn Company, priority 1999, dated 2004)", "target": "T1, thrombin (Homo sapiens, UniProt P00734)", "T1 construct": "purchased Sigma", "assay": "WaterLOGSY NMR screen of the functional genomics library against thrombin", "type": "binding", "conditions": "133 μM compound, 7 μM thrombin, 100 mM phosphate buffer, pH6.5", "procedure": "Several proteins with known functions were used for validating the screening library. The proteins were dissolved in 100 mM phosphate buffer, pH 6.5 to make stock solutions which were further diluted and mixed with the compound mixtures to make final concentration of 5-7 μM. The concentration of compounds was about 133 μM in the final solution. The ratio of compound to protein concentrations was about 20:1.\nNMR experiments for validating the functional genomics library with proteins of known functions were conducted on a Bruker Avance 600 MHz spectrometer equipped with 5 mm FISEI flow probe and Gilson 215 liquid sample handler. Binding was detected using the WaterLOGSY experiment.\nThe functional genomics screening library was screened against thrombin obtained from Sigma, which is one of the test proteins used for validation of the library. One assay mixture contained 133 μM of N-alpha-dansyl-DL-tryptophan cyclohexylammonium salt (DPS) and 7 μM of thrombin in 100 mM phosphate buffer, pH6.5. This mixture also contained Benzyl (S)-(−)-2-(1-pyrrolidinylcarbonyl)-1-pyrrolidinecarboxylate (ZPR), Chymostatin A (CSA), Tetrahydrofolic acid (C2F), Haloperidol (THK). Referring to FIG. 17, the reference NMR spectrum of DPS is in the top panel while the WaterLOGSY spectrum of the mixture is shown in the bottom panel. The positive peak in the WaterLOGSY spectrum indicates binding of DPS to thrombin. […]", "data": [{"smiles": "CN(C)c1cccc2c(S(=O)(=O)NC(Cc3c[nH]c4ccccc34)C(=O)O)cccc12.NC1CCCCC1", "note": "(racemic) [DPS, N-alpha-dansyl-DL-tryptophan cyclohexylammonium salt]", "values": [{"measurement": "binding to thrombin (positive peak in WaterLOGSY spectrum)", "result": "binding"}]}]}
